In brackets after ≈: the same amount, converted by molar mass. Read-outs that look alike come from different tables or passages of the source.
Columns and labels:
Vero Cells = assay: Cytotoxicity, Vero cells; type: cell-based
[1] = test system: Candida albicans ATTC 90028; assay: Antifungal susceptibility testing, Candida albicans; type: cell-based; conditions: for IC50: ATTC90028, Table 2, read-out: Ca IC50; for MFC: ATTC90028, Table 2, read-out: Ca MFC; for MIC: ATTC90028, Table 2, read-out: Ca MIC
Description: (§1) Using standard susceptibility tests, the compounds of the invention were determined to be active against MRSA, C. neoformans and several other bacteria, fungi and protozoa. More specifically, the antibacterial and antifungal testing was carried out in the following manner. Cryptococcus neoformans ATCC 90113 and MRSA were obtained from the American Type Culture Collection (Manassas. Va.). Several others including Candida albicans ATTC 90028, Aspergillus fumigatus ATCC 90906 and Mycobacterium intracellulare (M. intracellulare) ATCC 23086 were also procured. Susceptibility testing was performed using a modified version of the National Committee for Clinical Laboratory Standards method. M. intracellulare was tested using a modified method of Franzblau, et al., J. Clin. Microbiol., 1998, 36, 362-366. DMSO solutions of samples were serially diluted in saline, and transferred in duplicate to 96 well microplates. Microbial suspensions were diluted in the broth to afford desired colony forming units/mL according to the 0.5 McFarland Standard [C. Albicans: either Saboraud Dextrose broth (SDB) or RPMI 1640, C. neoformans: SDB, A fumigatus: either YM broth (for MICS) or RPMI-1640+5% Alamar Blue.] After adding microbial cultures to the sampled afforded a final volume of 200 μL and final test concentration starting with 20 μg/mL, plates were read prior to and after final incubation using either fluorescence at 544ex/590em (M intracellulare, A. fumigatus) using the Polarstar galaxy reader (Biotek Instruments, Vermont). Growth (saline only), solvent and blank (media only) controls were included on each test plate. Drug controls [Ciprofloxacin (ICN Biomedicals, Ohio) for bacteria and Amphotericin B (ICN Biomedicals, Ohio) for fungi] were included in each assay. Percent growth was calculated and plotted versus test concentration to afford IC50 (sample concentration that affords 50% inhibition or growth of the organism). The minimum inhibitory concentration (MIC) was determined by visually inspecting the plate, and is defined as the lowest test concentration that allows no detectable growth (for Almar Blue assays, no color change from blue to pink).

[2] = test system: Cryptococcus neoformans ATCC 90113; assay: Antifungal susceptibility testing, Cryptococcus neoformans; type: cell-based; conditions: for IC50: ATCC90113, Table 2, read-out: Cn IC50; for MFC: ATCC90113, Table 2, read-out: Cn MFC; for MIC: ATCC90113, Table 2, read-out: Cn MIC
Description: as §1

[3] = test system: Aspergillus fumigatus ATCC 90906; assay: Antifungal susceptibility testing, Aspergillus fumigatus; type: cell-based; conditions: for A fu IC50 / IC50: Aspergillus fumigatus; for IC50: ATCC90906, read-out: A fu IC50
Description: as §1

MRSA = assay: Antibacterial susceptibility testing, MRSA; type: cell-based, methicillin resistant Staphylococcus aureus
Description: as §1

[4] = Staphylococcus aureus, Table 2, read-out: MRSA IC50
[5] = Staphylococcus aureus, Table 2, read-out: MRSA MIC

## C[C@@H]1[C@H](O)[C@@H](C)/C=C/C=C/C=C/C=C/C=C/C=C/C=C/[C@H](O[C@@H]2O[C@H](C)[C@@H](O)[C@H](N)[C@@H]2O)C[C@@H]2O[C@](O)(C[C@@H](O)C[C@@H](O)[C@H](O)CC[C@@H](O)C[C@@H](O)CC(=O)O[C@H]1C)C[C@H](O)[C@H]2C(=O)O [Amph B, Amphotericin B, reference compound]
Vero Cells; Table 1
  TC50 Vero Cells: 6.5 µg/mL (≈ 7.03 µM)
Vero Cells; Table 2
  TC50 Vero Cells: 6.5 µg/mL (≈ 7.03 µM)
Vero Cells; Table 3
  TC50 Vero Cells: 6.5 µg/mL (≈ 7.03 µM)
[1]; Table 1
  Ca IC50: 0.25 µg/mL
  Ca MFC: 1.3 µg/mL
  Ca MIC: 0.63 µg/mL
[1]; Table 2
  Ca IC50: 0.25 µg/mL
  Ca MFC: 1.3 µg/mL
  Ca MIC: 0.63 µg/mL
[1]; Table 3
  Ca IC50: 0.25 µg/mL
  Ca MFC: 1.3 µg/mL
  Ca MIC: 0.63 µg/mL
[2]; Table 1
  Cn IC50: 0.85 µg/mL
  Cn MFC: 2.5 µg/mL
  Cn MIC: 2.5 µg/mL
[2]; Table 2
  Cn IC50: 0.85 µg/mL
  Cn MFC: 2.5 µg/mL
  Cn MIC: 2.5 µg/mL
[2]; Table 3
  Cn IC50: 0.85 µg/mL
  Cn MFC: 2.5 µg/mL
  Cn MIC: 2.5 µg/mL
[3]
  A fu MFC: 2.5 µg/mL
  A fu MIC: 2.5 µg/mL
[3]; Table 1
  A fu IC50: 0.90 µg/mL
[3]; Table 2
  A fu IC50: 0.90 µg/mL
[3]; Table 3
  A fu IC50: 0.90 µg/mL

## O=C(O)c1cn(C2CC2)c2cc(N3CCNCC3)c(F)cc2c1=O [Cipro, Ciprofloxacin, reference compound]
Vero Cells; Table 3
  TC50 Vero Cells: >10 µg/mL
MRSA; Staphylococcus aureus, Table 3, read-out: MRSA IC50
  IC50: 0.09 µg/mL (≈ 0.272 µM)
MRSA; Staphylococcus aureus, Table 3, read-out: MRSA MFC
  MFC: > 20 µg/mL
MRSA; Staphylococcus aureus, Table 3, read-out: MRSA MIC
  MIC: 0.5 µg/mL (≈ 1.51 µM)

## C[n+]1cc(N(CCCCCC2CCCCC2)c2ccsc2)cc2ccccc21 [EVK-II-091]
Vero Cells; Table 2
  TC50 Vero Cells: >10 µg/mL
MRSA; [4]
  IC50: 0.45 µg/mL
MRSA; [5]
  MIC: 0.63 µg/mL
[1]
  IC50: 0.8 µg/mL
  MFC: > 20 µg/mL
  MIC: 1.3 µg/mL
[2]
  IC50: 0.45 µg/mL
  MFC: 5 µg/mL
  MIC: 0.63 µg/mL
[3]
  A fu MFC: 5.0 µg/mL
  A fu MIC: 1.3 µg/mL
[3]; Table 2
  IC50: 0.5 µg/mL

## C[n+]1cc(N(CCCCCC2CCCCC2)c2ccc3ccccc3c2)cc2ccccc21 [EVK-III-001]
Vero Cells; Table 2
  TC50 Vero Cells: 9.0 µg/mL
MRSA; [4]
  IC50: 0.3 µg/mL
MRSA; [5]
  MIC: 0.78 µg/mL
[1]
  IC50: 0.2 µg/mL
  MFC: 3.1 µg/mL
  MIC: 0.39 µg/mL
[2]
  IC50: 0.35 µg/mL
  MFC: 1.6 µg/mL
  MIC: 0.78 µg/mL
[3]
  A fu MFC: 3.1 µg/mL
  A fu MIC: 1.6 µg/mL
[3]; Table 2
  IC50: 0.95 µg/mL

## C[n+]1cccc(N(CCCCCC2CCCCC2)c2ccc3ccccc3c2)c1 [EVK-III-002]
Vero Cells; Table 2
  TC50 Vero Cells: 6.0 µg/mL
MRSA; [4]
  IC50: 0.45 µg/mL
MRSA; [5]
  MIC: 0.78 µg/mL
[1]
  IC50: 0.6 µg/mL
  MFC: 13 µg/mL
  MIC: 1.6 µg/mL
[2]
  IC50: 0.85 µg/mL
  MFC: 1.6 µg/mL
  MIC: 1.6 µg/mL
[3]
  A fu MFC: 6.3 µg/mL
  A fu MIC: 1.6 µg/mL
[3]; Table 2
  IC50: 1 µg/mL

## Clc1ccc(Nc2cc3ccccc3[n+](CCCCCC3CCCCC3)c2)cc1.[I-] [JRE-2-83-1]
Vero Cells; Table 2
  TC50 Vero Cells: 12.5 µg/mL
MRSA; Table 2
  MRSA IC50: 0.50 µg/mL
  MRSA MFC: 1.6 µg/mL
  MRSA MIC: 0.78 µg/mL
[1]; Table 2
  Ca IC50: 2.0 µg/mL
  Ca MFC: — ((-) = >20 μg/mL)
  Ca MIC: 25 µg/mL
[2]; Table 2
  Cn IC50: 1.0 µg/mL
  Cn MFC: — ((-) = >20 μg/mL)
  Cn MIC: 1.6 µg/mL
[3]; Table 2
  A fu IC50: — ((-) = >20 μg/mL)

## FC(F)(F)c1ccc2[nH]c3c[n+](CCCCCC4CCCCC4)c4ccccc4c3c2c1.[I-] [JRE-3-4-1]
Vero Cells; Table 3
  TC50 Vero Cells: 10.5 µg/mL
MRSA; Table 3
  MRSA IC50: 1.0 µg/mL
  MRSA MFC: 3.1 µg/mL
  MRSA MIC: 1.6 µg/mL
[1]; Table 3
  Ca IC50: 2.0 µg/mL
  Ca MFC: 13 µg/mL
  Ca MIC: 6.3 µg/mL
[2]; Table 3
  Cn IC50: 9.0 µg/mL
  Cn MFC: — ((-) = >20 μg/mL)
  Cn MIC: — ((-) = >20 μg/mL)
[3]; Table 3
  A fu IC50: 10 µg/mL
